Laboratory results reported in ChEMBL document CHEMBL2146468, “Thrombin inhibitors from the freshwater cyanobacterium Anabaena compacta” (J Nat Prod, 2012).

Assays:
[1] = Inhibition of trypsin
[2] = Selectivity ratio of EC50 for bovine thrombin to EC50 for cathepsin B
Cathepsin B = Cathepsin B (Homo sapiens, UniProt P07858); assay: Inhibition of cathepsin B using Z-Phe-Arg-MCA as substrate incubated for 10 mins prior to substrate addition measured after 30 mins by fluorimetric analysis
Prothrombin [3] = target: Prothrombin (Bos taurus, UniProt P00735); assay: Inhibition of bovine thrombin using Bz-Phe-Val-Arg-pNA as substrate incubated for 5 mins prior to substrate addition measured after 30 mins by spectrophotometric analysis
Prothrombin [4] = target: Prothrombin (Homo sapiens, UniProt P00734); assay: Inhibition of thrombin
Plasminogen = Plasminogen (Homo sapiens, UniProt P00747); assay: Inhibition of plasmin
Chain of Plasminogen (P00747 97-580 limits assumed): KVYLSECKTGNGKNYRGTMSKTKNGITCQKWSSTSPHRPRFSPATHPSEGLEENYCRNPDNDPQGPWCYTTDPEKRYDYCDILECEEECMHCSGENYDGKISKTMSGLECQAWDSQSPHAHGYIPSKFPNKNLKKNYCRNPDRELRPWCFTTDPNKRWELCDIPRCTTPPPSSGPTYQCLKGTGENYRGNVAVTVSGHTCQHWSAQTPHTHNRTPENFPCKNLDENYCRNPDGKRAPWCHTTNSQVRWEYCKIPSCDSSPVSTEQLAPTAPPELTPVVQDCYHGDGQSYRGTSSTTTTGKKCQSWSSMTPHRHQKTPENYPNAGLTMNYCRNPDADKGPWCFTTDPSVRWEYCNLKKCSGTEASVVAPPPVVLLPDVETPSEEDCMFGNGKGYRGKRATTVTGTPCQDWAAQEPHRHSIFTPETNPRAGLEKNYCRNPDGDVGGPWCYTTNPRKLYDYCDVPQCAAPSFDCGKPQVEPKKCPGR
Chain of Plasminogen (P00747 581-810 limits assumed): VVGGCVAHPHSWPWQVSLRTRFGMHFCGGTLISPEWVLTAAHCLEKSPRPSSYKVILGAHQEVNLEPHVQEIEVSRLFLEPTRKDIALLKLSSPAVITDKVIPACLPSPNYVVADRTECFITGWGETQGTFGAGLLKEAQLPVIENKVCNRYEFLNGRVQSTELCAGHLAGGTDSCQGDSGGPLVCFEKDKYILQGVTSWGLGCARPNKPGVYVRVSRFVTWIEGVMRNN

| Structure (SMILES) | EC50 [1] [µM] | Ratio EC50 [2] | EC50 (Cathepsin B) [µM] | EC50 (Prothrombin [3]) [µM] | EC50 (Prothrombin [4]) [µM] | EC50 (Plasminogen) [µM] |
| --- | --- | --- | --- | --- | --- | --- |
| C[C@H]1C[C@@H](C(=O)N[C@H](CO)CCCNC(=N)N)N(C(=O)[C@@H](CCc2ccc(O)cc2)NC(=O)[C@H](O)Cc2ccc(O)cc2)C1 [SPUMIGIN A] | 26.3 | 10 |  |  |  |  |
| C[C@H]1C[C@@H](C(=O)N[C@@H](CCCNC(=N)N)C(=O)O)N(C(=O)[C@@H](CCc2ccc(O)cc2)NC(=O)[C@H](O)Cc2ccc(O)cc2)C1 [SPUMIGIN B1] | 33.1 |  |  |  |  |  |
| C[C@H]1C[C@@H](C(=O)N(C)[C@H](CCCCN)C(=O)O)N(C(=O)[C@@H](CCc2ccc(O)cc2)NC(=O)[C@H](O)Cc2ccc(O)cc2)C1 [SPUMIGIN J] |  | 7 | 0.7 | 4.9 |  |  |
| C[C@H]1C[C@@H](C(=O)N[C@H](CO)CCCN=C(N)N)N(C(=O)[C@@H](CCc2ccc(O)cc2)NC(=O)[C@H](O)Cc2ccc(O)cc2)C1 [SPUMIGIN A] |  |  | 0.2 | 2.1 | 7.5 | 4.9 |
| C[C@H]1C[C@@H](C(=O)NC(C=O)CCCNC(=N)N)N(C(=O)[C@@H](CCc2ccc(O)cc2)NC(=O)[C@H](O)Cc2ccc(O)cc2)C1 (stereo partly specified) [SPUMIGIN E] | 0.3 |  |  |  |  |  |
